Numbering of substitutions follows the chain as printed.
Key:
AR T877A [1] = molecular target: T1, AR T877A (Homo sapiens, UniProt P10275, T878A); assay: Transcription assay (ARE-luciferase reporter) in CV-1 cells, AR T877A; type: cell-based; parameters: expressed in transfected cells; host or cells: CV-1
T1 sequence (P10275 1-920 T878A): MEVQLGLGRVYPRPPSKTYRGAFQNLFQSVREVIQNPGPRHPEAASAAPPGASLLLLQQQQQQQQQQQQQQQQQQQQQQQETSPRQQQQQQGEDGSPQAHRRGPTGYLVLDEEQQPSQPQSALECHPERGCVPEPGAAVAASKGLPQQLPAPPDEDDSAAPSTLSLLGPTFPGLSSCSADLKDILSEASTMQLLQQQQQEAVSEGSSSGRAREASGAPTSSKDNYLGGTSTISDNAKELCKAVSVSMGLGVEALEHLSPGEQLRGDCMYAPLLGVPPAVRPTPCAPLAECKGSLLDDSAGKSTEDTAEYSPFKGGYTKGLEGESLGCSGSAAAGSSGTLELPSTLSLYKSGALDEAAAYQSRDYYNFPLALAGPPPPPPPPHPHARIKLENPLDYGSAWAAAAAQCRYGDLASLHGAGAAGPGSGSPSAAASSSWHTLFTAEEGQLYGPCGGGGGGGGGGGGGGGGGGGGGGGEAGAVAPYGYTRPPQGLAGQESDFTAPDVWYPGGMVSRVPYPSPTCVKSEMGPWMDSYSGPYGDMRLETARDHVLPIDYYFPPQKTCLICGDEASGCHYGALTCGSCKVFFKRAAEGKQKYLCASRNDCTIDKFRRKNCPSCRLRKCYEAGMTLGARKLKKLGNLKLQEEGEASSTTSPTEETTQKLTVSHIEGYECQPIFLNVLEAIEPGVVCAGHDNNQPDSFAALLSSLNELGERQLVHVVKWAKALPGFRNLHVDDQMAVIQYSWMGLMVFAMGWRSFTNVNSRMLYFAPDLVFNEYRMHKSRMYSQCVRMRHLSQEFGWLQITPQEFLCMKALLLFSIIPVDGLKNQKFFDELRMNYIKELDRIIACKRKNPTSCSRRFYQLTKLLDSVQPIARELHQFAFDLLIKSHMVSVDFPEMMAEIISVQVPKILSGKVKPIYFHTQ
Protocol: (§1) Twenty-four hours prior to transfection, CV-1 cells were seeded at a density of 45,000 cells per well in 24-well cell culture plates and grown in phenol red free Dulbecco's Modified Eagle Medium (DMEM) supplemented with 10% cosmic calf serum (COS). ARE-luciferase reporter and Renilla-Luc as the internal standard and a prokaryotic expression vector encoding the wild-type androgen receptor or mutant androgen receptor were transfected with Lipofectamine (Invitrogen) following manufacturer's protocol. Five hours after transfection, media was added containing the appropriate concentrations of ligands. The cells were allowed to incubate for 38 hours before harvesting by passive lysis buffer. Cell extracts were immediately assayed using the Dual Luciferase Assay (Promega) with a Perkin-Elmer Microbeta Luminometer. […] Dose-response data was analyzed by nonlinear regression analysis using GraphPad Prism.

AR W741C = molecular target: T2, AR W741C (Homo sapiens, UniProt P10275, W742C); assay: Competitive binding assay, [3H]DHT, transfected COS-7 cells, AR W741C; parameters: expressed in transfected cells; host or cells: COS-7; conditions: 75 nM [3H]-DHT, read-out: Binding affinity (Ki), AR W741C
T2 sequence (P10275 1-920 W742C): T1 sequence (P10275 1-920 T878A) with W742C, A878T
Protocol: (§2) Twenty-four hours prior to transfection, COS-7 cells were seeded at a density of 70,000 cells per well in 24-well cell culture plates and grown in phenol red free Dulbecco's Modified Eagle Medium (DMEM) supplement with 10% cosmic calf serum (CCS). The cells were transfected with a prokaryotic expression vector encoding the wild-type androgen receptor or mutant androgen receptor using Lipofectamine (Invitrogen) following manufacturer's protocol. […] Cells were washed with PBS and harvested in 2% SDS, 10% glycerol, and 10 mM Tris, pH 6.8, and radioactivity determined by scintillation counting.

AR wt [2] = molecular target: T3, AR wt (Homo sapiens, UniProt P10275); assay: Competitive binding assay, [3H]DHT, transfected COS-7 cells, wild-type AR; parameters: expressed in transfected cells; host or cells: COS-7; conditions: 8 nM [3H]-DHT, read-out: Binding affinity (Ki), AR wt
T3 sequence (P10275 1-920): T1 sequence (P10275 1-920 T878A) with A878T
Protocol: as §2

AR T877A [3] = molecular target: T1, AR T877A; assay: Competitive binding assay, [3H]DHT, transfected COS-7 cells, AR T877A; parameters: expressed in transfected cells; host or cells: COS-7; conditions: 14 nM [3H]-DHT, read-out: Binding affinity (Ki), AR T877A
Protocol: as §2

AR wt [4] = molecular target: T3, AR wt; assay: Transcription assay (ARE-luciferase reporter) in CV-1 cells, wild-type AR; type: cell-based; parameters: expressed in transfected cells; host or cells: CV-1
Protocol: as §1

prostate tissues = assay: Prostate apoptosis by TUNEL after short-term IP treatment (PLM6, bicalutamide); type: in vivo, Male C57BI/6 mice; conditions: 25 mg/kg/day IP, mean ± SE
Protocol: FIG. 6. […] Single 20× magnification fields from each of four lobes of mouse prostate glands were counted in each mouse. […] Data are expressed as means±SE. Statistics were determined using two-tailed, paired t-tests assuming data from each lobe was independent.
(§3) Prostates were removed from 3 day and 5 day treatment groups, sectioned and stained by H&E and TUNEL.
PLM6-induced glandular apoptosis was 19.9±2.8 cells per 20× field on day 3 (P=0.0064) that reached 24.63±3 cells per 20× field on day 5 (P=2.59×10^−4) (FIG. 7). Prostates from treated and control mice were isolated, fixed sectioned and stained TUNEL (BrdU). Sections were then evaluated by visible light microscopy and counting.

[5] = 25 mg/kg/day IP; PLM6 death at 5 days of treatment
Excerpt: as §3

With CN(C)CCCOc1ccccc1Cc1ccccc1S(=O)(=O)CC(C)(O)C(=O)Nc1ccc(C#N)c(C(F)(F)F)c1 (stereo not shown) [PAN12] the IC50 (AR T877A [1]) was 4.1 ± 0.7 µM, the “Antagonist efficacy (RLU value at IC50), AR T877A” value (AR T877A [1]; in competition with 10 nM DHT) was “(53% ± 5.6%)” and the Ki (AR W741C) was 16 µM. The Ki (AR wt [2]) was 5.8 µM, the Ki (AR T877A [3]) was 2.6 µM and the IC50 (AR wt [4]) was 2.4 µM. The “Antagonist efficacy (RLU value at IC50), AR wt” value (AR wt [4]; in competition with 3 nM DHT, normalized to 10 nM DHT in hAR(wt)) was “(59%)”.
In the case of CC(O)(CS(=O)(=O)c1ccc(F)cc1)C(=O)Nc1ccc(C#N)c(C(F)(F)F)c1 (stereo not shown) [Bicalutamide, bicalutamide], the “Glandular apoptosis, apoptotic cells” value (prostate tissues; day 3, TUNEL) is reported as 21.04±4.7 cells per 20× field, the “Glandular apoptosis, apoptotic cells” value (prostate tissues; day 5, TUNEL) is reported as 50.83±8.2 cells per 20× field and the Deaths [5] is reported as “two”.
